The target of one series is T1, CCR5 (Homo sapiens, UniProt P51681).
T1 construct: After 21 to 34 days culture, the membranes were prepared from the cells; endogenous in cells; host or cells: Allo-T cells (allo-reactive T cell line from human PBMCs), membrane preparation
In words: Displacement of radio-labelled CCR5 antagonist from Allo-T cell membranes. It counts as binding. To be noted: membranes of human allo-reactive T cells; 2 nM [3H] CCR5 antagonist; 2 hours at room temperature. As to the method: The ability of the compound of the present invention to inhibit the binding of MIP-1β (CCL-4) was measured:
An allo-reactive T cell line was generated by exposure of human peripheral blood mononuclear cells (PBMCs) to L-DR4/B7 fibroblasts (immobilised with glutaraldehyde fixation and irradiation) and subsequent expansion with anti-CD3 and IL-2 for 14 days. The resultant Allo-T cells were frozen. When required, the cells were grown and re-challenged with irradiated HLA-DR4+ve PBMCs and expanded with anti-CD3 and IL-2. After 21 to 34 days culture, the membranes were prepared from the cells. These membranes were incubated in 96-well plates with 2 nM of the radio-labelled CCR5 antagonist [^3H]1-{(3R)-3-(3,5-difluorophenyl)-3-[4-(methylsulfonyl)phenyl]propyl}-4-(2-{[4-(methylsulfonyl)phenyl]sulfonyl}ethyl)piperidine and various concentrations of the compound of the invention for 2 hours at room temperature. The plates were then harvested onto GF/B filter plates (which had been pre-soaked soaked in 0.3% PEI containing 0.2% BSA for 10 min at 4° C.) using a Packard Unifilter harvester using 10 wash steps. The amount of [^3H]1-{(3R)-3-(3,5-difluorophenyl)-3-[4-(methylsulfonyl)phenyl]propyl}-4-(2-{[4-(methylsulfonyl)phenyl]sulfonyl}ethyl)piperidine retained on the filter plates was determined by scintillation counting. […]

The nature of series [1]: Rat pharmacokinetics after intravenous and oral dosing. Type of series: in vivo. The conditions noted are these: male Han Wistar rat; for clearance / half-life / Vd: Alderley Park Han Wistar, whole blood, intravenous 2 mg/kg; for clearance: blood clearance; for half-life: read-out: T½ (converted); for Vd: volume of distribution, read-out: Vdss; for F: bioavailability, oral 2 mg/kg vs intravenous 2 mg/kg. As to the method:
The rat pharmacokinetic (PK) parameters blood clearance (CL), volume of distribution (Vdss) and half life (t1/2) are calculated by determining the concentration (exposure) of test compound in whole blood samples taken from rats at various, defined time points subsequent to the intra-venous dosing (administration) of formulated test compound. The rat PK parameter bioavailability (F) is calculated by determining the concentration (exposure) of test compound in whole blood samples taken from rats at various, defined time-points subsequent to the oral dosing (administration) of formulated test compound and then by comparison of the ratio of the dose normalized total oral exposure (AUCpo) with the dose normalized total intra-venous exposure (AUCiv). Fraction absorbed (Fabs) is a secondary PK parameter that is often calculated from a knowledge of the clearance (CL) and bioavailability (F) of a test compound. The equation for determination of Fabs is as follows: […]
where Qh is the species liver blood flow (ml/min/kg).
For intravenous dosing, test compounds are dissolved in dimethyl acetamide (DMA) and then diluted with water such that the final test compound concentration is 1 mg/ml and the composition of the formulation is 40% DMA: 60% water. Male rats (n=2, Alderley Park Han Wistar strain) are then administered, via the tail vein, the test compound formulation at a dose volume of 2 ml/kg bodyweight such that each rat receives a total test compound dose of 2 mg/kg bodyweight. Blood sampling post IV dosing is via needle stick puncture of the tail vein and is serial in design: two rats have blood samples taken at 5, 20, 40, 90, 180, 360, 720 and 1440 (cardiac puncture) minutes after dosing.
For oral dosing, test compounds are dissolved in dimethyl sulphoxide (DMSO and then diluted with hydroxymethyl cellulose (HPMC) 0.5% w/v-Tween 80 (0.1% v/v) such that the final test compound concentration is 1 mg/ml and the composition of the formulation is 5% DMSO:95% HPMC/Tween. Male rats (n=2, Alderley Park Han Wistar strain) are then administered, via oral gavage, the test compound formulation at a dose volume of 2 ml/kg bodyweight such that each rat receives a total test compound dose of 2 mg/kg bodyweight. Blood sampling post oral dosing is via needle stick puncture of the tail vein and is serial in design: two rats have blood samples taken at 15, 30, 60, 120, 180, 360, 720 and 1440 (cardiac puncture) minutes after dosing. All blood samples are collected into lithium heparin tubes to prevent clotting. Aliqouts of blood are then diluted 1:1 with water and then frozen at −20° C. prior to being assayed to determine test compound concentration.
Calibration standard samples are prepared by addition of known amounts of test compound to blank diluted (1:1) blood samples. Calibration standards and unknown samples are then diluted and mixed with 3 parts ice-cold acetonitrile (containing suitable internal standard) to precipitate proteinaceous material. Following centrifugation, sample and calibration standard supernatants are analysed for test compound concentration by HPLC with MS/MS (triple quad mass spectrometry) detection. Quantification of test compound concentrations in the blood samples taken from the rats is achieved by reference to a standard curve constructed from the calibration standard samples.
Blood concentration—time point data and other information such as IV and PO dose is then entered into and analysed by a commercially available non-linear regression software program (WinNonLin version 4.1, Pharsight Corporation) to determine the rat PK parameters of interest (as described above).

T1 sequence (P51681 whole entry): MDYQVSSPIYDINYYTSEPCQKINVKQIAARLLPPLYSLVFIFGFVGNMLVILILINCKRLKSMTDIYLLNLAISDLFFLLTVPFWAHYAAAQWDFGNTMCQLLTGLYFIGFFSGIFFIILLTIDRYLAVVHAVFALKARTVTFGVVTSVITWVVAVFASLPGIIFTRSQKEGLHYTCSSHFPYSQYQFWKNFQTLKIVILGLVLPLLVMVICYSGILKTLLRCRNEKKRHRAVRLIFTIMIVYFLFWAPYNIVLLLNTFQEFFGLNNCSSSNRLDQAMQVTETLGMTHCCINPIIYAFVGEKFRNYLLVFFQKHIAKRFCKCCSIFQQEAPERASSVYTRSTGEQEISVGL

The IC50 is the concentration that gives 50% inhibition. Low values mean inhibition by little substance, high ones a need for much substance. On CCR5, `Cc1nnc(C(C)C)n1C1CCN(C(C)C[C@@H](c2cc(F)cc(F)c2)C2CCN(S(C)(=O)=O)CC2)CC1` (single isomer, unassigned) [Comparator Compound A] came in with a half-inhibitory concentration (IC50) of 32 nM. In series [1], the clearance stood at 37 mL/min/kg, the half-life was 2.7 h, the Vd stood at 4.9 L/kg and the F is 1%.

With `CCc1nnc(C(C)C)n1C1CCN([C@H](C)C[C@@H](c2cc(F)cc(F)c2)C2CCN(S(C)(=O)=O)CC2)CC1` (single isomer, unassigned), the IC50 at CCR5 amounted to 6.5 nM. Also, in series [1], the clearance was determined as 18 mL/min/kg, the half-life is 4 h, the Vd is 4.1 L/kg and the F is 28%.

The record behind these values is patent US20080139613A1, “Chemical Compound” (AstraZeneca AB, priority 2006, published 2008).
